The record followed here is patent US10479780B2, “Aminopyrazole derivatives” (Chugai Seiyaku Kabushiki Kaisha, priority 2015, dated 2019).

Structures are written as SMILES. Read-outs that look alike come from different tables or passages of the source.

Holding throughout (type): biochemical
One assay concerns the target T1, human Lck enzyme (Homo sapiens, UniProt P06239).
T1 construct: purchased Carna Biosciences, Inc. 08-170
Put plainly: Lck enzyme inhibitory activity (time-resolved fluorometry, biotinylated peptide phosphorylation). The following applies: read-out: LCK_IC50. The procedure, abridged: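 Readout pairs a europium cryptate-labelled anti-phosphotyrosine antibody with XL665-streptavidin, measured by time-resolved fluorescence. IC50 derived from percent inhibition against untreated controls.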

The next assay has as its target T2, human Yes1 enzyme (Homo sapiens, UniProt P07947).
T2 construct: made in house
Put plainly: Yes1 enzyme inhibitory activity (time-resolved fluorometry, biotinylated peptide phosphorylation). The following applies: read-out: YES_IC50. In outline: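 Inhibition was expressed against a compound-free control to give IC50, using TR-FRET read-out (Eu-cryptate anti-pTyr antibody, streptavidin-XL665).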

The next assay addresses T3, human Src enzyme (Homo sapiens, UniProt P12931).
T3 construct: purchased Carna Biosciences, Inc. 08-173
Kind of assay: Src enzyme inhibitory activity (time-resolved fluorometry, biotinylated peptide phosphorylation). The following applies: read-out: SRC_IC50. In outline:
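Compounds were tested for blocking tyrosine phosphorylation of a biotinylated peptide substrate by recombinant human Src. Phosphorylated product was quantified by time-resolved fluorometry using europium cryptate and XL665 conjugates, and IC50 was calculated against the compound-free control.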

[1] abbreviates: biotinylated peptide phosphorylation.

T1 sequence (P06239 whole entry): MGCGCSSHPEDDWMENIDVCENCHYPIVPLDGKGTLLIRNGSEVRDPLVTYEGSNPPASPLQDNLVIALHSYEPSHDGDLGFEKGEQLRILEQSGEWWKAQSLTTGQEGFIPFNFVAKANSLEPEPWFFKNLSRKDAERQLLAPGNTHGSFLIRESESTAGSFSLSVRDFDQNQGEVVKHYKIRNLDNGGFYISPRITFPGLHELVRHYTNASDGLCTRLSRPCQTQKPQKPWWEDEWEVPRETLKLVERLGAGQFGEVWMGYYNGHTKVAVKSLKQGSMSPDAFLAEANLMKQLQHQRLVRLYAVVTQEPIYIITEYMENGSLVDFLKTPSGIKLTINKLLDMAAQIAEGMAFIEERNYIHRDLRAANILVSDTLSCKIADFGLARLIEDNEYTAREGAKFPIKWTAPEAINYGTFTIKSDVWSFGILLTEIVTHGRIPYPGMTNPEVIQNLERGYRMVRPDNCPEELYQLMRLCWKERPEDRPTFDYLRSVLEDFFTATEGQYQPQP
T3 sequence (P12931 whole entry): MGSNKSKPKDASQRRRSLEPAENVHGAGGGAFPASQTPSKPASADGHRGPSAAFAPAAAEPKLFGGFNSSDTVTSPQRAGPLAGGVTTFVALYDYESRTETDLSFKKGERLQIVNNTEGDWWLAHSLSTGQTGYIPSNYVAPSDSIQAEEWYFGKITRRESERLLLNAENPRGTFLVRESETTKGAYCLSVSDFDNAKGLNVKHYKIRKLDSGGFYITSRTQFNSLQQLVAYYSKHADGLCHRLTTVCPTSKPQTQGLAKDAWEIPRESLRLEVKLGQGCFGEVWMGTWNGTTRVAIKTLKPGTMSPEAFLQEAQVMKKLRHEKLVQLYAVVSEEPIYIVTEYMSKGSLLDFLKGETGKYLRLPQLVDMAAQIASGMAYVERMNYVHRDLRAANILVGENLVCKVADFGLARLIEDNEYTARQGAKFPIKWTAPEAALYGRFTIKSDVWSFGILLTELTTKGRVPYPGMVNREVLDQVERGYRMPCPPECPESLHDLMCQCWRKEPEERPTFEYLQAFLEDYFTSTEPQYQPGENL
T2 sequence (P07947 whole entry): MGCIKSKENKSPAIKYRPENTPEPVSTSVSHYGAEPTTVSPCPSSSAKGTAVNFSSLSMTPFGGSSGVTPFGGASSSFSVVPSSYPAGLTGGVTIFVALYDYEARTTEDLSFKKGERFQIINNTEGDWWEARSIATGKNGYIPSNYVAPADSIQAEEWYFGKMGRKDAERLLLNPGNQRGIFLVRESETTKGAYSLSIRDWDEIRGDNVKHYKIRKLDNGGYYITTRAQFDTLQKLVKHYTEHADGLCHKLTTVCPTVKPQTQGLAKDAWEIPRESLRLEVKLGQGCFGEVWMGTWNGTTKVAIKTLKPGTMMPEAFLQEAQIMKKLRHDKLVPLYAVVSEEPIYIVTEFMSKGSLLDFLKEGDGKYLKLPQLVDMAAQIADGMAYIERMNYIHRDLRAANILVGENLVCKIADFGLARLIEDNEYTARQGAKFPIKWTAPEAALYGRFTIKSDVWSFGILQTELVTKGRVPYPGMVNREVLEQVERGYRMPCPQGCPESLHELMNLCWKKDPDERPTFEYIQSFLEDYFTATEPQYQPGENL

With `Cc1cc(Oc2c(F)cccc2F)ncc1-n1ncc(C(=O)c2cc3cc(OCC(F)F)c(NS(=O)(=O)CCC(F)F)cc3[nH]2)c1N` [Example 4-24-033, N-[2-[5-amino-1-[6-(2,6-difluorophenoxy)-4-methylpyridin-3-yl]pyrazole-4-carbonyl]-5-(2,2-difluoroethoxy)-1H-indol-6-yl]-3,3-difluoropropane-1-sulfonamide], the results for the IC50 on human Lck enzyme (setting [1]), at human Yes1 enzyme (setting [1]) and on human Src enzyme (setting [1]) were 16 nM, 4.9 nM and 88 nM, respectively.

In the case of `Cc1cc(Oc2ccccc2)cc(F)c1-n1ncc(C(=O)c2cc3cc(F)c(NS(C)(=O)=O)cc3[nH]2)c1N` [Example 4-7-013, N-[2-[5-amino-1-(2-fluoro-6-methyl-4-phenoxyphenyl)pyrazole-4-carbonyl]-5-fluoro-1H-indol-6-yl]methanesulfonamide], the figures for the IC50 on human Lck enzyme (setting [1]), at human Yes1 enzyme (setting [1]) and at human Src enzyme (setting [1]) were 26 nM, 3 nM and 58 nM, respectively.

As to `Cc1cc(Oc2ccccc2F)ccc1-n1ncc(C(=O)c2cc3cc(OCC(F)F)c(N4C(=O)[C@@H]5C[C@H](NS(=O)(=O)c6ccc7ccccc7c6)CN5C4=O)cc3[nH]2)c1N` [Example 5-1-276, N-[(6S,7aS)-2-[2-[5-amino-1-[4-(2-fluorophenoxy)-2-methylphenyl]pyrazole-4-carbonyl]-5-(2,2-difluoroethoxy)-1H-indol-6-yl]-1,3-dioxo-5,6,7,7a-tetrahydropyrrolo[1,2-c]imidazol-6-yl]naphthalene-2-sulfonamide], the IC50 at human Lck enzyme was found to be 35 nM; on human Yes1 enzyme it was 2.2 nM; at human Src enzyme, 87 nM.

With `Cc1cc(Oc2ccccc2F)ccc1-n1ncc(C(=O)c2cc3cc(F)c(N4C(=O)N[C@@H](CO)C4=O)cc3[nH]2)c1N` [Example 5-1-446, (5S)-3-[2-[5-amino-1-[4-(2-fluorophenoxy)-2-methylphenyl]pyrazole-4-carbonyl]-5-fluoro-1H-indol-6-yl]-5-(hydroxymethyl)imidazolidine-2,4-dione], the figures for the IC50 on human Lck enzyme (setting [1]), at human Yes1 enzyme (setting [1]) and on human Src enzyme (setting [1]) were 2.1 nM, 0.44 nM and 13 nM, respectively.

Turning to `Cc1cc2cc(C(=O)c3cnn(-c4cnc(Oc5c(F)cccc5F)cc4C)c3N)[nH]c2cc1N1C(=O)CNC1=O` [Example 5-1-442, 3-[2-[5-amino-1-[6-(2,6-difluorophenoxy)-4-methylpyridin-3-yl]pyrazolo-4-carbonyl]-5-methyl-1H-indol-6-yl]imidazolidine-2,4-dione], the IC50 at human Lck enzyme (setting [1]) turned out to be 4.9 nM; at human Yes1 enzyme (setting [1]), 1.2 nM; at human Src enzyme (setting [1]) it was 21 nM.

Regarding `Cc1cc(Oc2cccc(F)c2F)cc(F)c1-n1ncc(C(=O)c2cc3cc(NS(C)(=O)=O)c(Cl)cc3[nH]2)c1N` [Example 4-2-094, N-[2-[5-amino-1-[4-(2,3-difluorophenoxy)-2-fluoro-6-methylphenyl]pyrazole-4-carbonyl]-6-chloro-1H-indol-5-yl]methanesulfonamide], the IC50 on human Lck enzyme (setting [1]) came to 8.2 nM; on human Yes1 enzyme (setting [1]), 2 nM; at human Src enzyme (setting [1]), 33 nM.

For `Cc1cc(Oc2c(F)cccc2F)ncc1-n1ncc(C(=O)c2cc3cc(SC(F)F)c(N4C(=O)NC(C)(C)C4=O)cc3[nH]2)c1N` [Example 5-1-324, 3-[2-[5-amino-1-[6-(2,6-difluorophenoxy)-4-methylpyridin-3-yl]pyrazole-4-carbonyl]-5-(difluoromethylsulfanyl)-1H-indol-6-yl]-6,5-dimethylimidazolidine-2,4-dione], the IC50 on human Lck enzyme was found to be 19 nM; at human Yes1 enzyme, 10 nM; on human Src enzyme, 230 nM.

For the molecule `Cc1cc(Oc2c(F)cccc2F)ncc1-n1ncc(C(=O)c2cc3cc(OCC(F)F)c(NS(C)(=O)=O)cc3[nH]2)c1N` [Example 4-24-031, N-[2-[5-amino-1-[6-(2,6-difluorophenoxy)-4-methylpyridin-3-yl]pyrazole-4-carbonyl]-5-(2,2-difluoroethoxy)-1H-indol-6-yl]methanesulfonamide], the IC50 was 6.7 nM on human Lck enzyme (setting [1]), 1.2 nM on human Yes1 enzyme (setting [1]) and 21 nM on human Src enzyme (setting [1]).

`Cc1cc(-n2ncc(C(=O)c3cc4cc(C)c(N5C(=O)NC6(CC6)C5=O)cc4[nH]3)c2N)ccc1Oc1ccccc1F` [Example 5-1-473, 6-[2-[5-amino-1-[4-(2-fluorophenoxy)-3-methylphenyl]pyrazole-4-carbonyl]-5-methyl-1H-indol-6-yl]-4,6-diazaspiro[2.4]heptane-5,7-dione]: the IC50 on human Lck enzyme (setting [1]) came to 240 nM; on human Yes1 enzyme (setting [1]) it was 17 nM; on human Src enzyme (setting [1]), 3500 nM.

As for `COc1ccccc1-c1cc2[nH]c(C(=O)c3cnn(-c4cnc(Oc5c(F)cccc5F)cc4C)c3N)cc2cc1OC1CCN(C2CCCC2)CC1` [Example 5-1-503, [5-amino-1-[6-(2,6-difluorophenoxy)-4-methylpyridin-3-yl]pyrazol-4-yl]-[5-(1-cyclopentylpiperidin-4-yl)oxy-6-(2-methoxyphenyl)-1H-indol-2-yl]methanone], the IC50 was determined as 15 nM at human Lck enzyme (setting [1]), 1.9 nM on human Yes1 enzyme (setting [1]) and 87 nM at human Src enzyme (setting [1]).

Regarding `COc1cc2cc(C(=O)c3cnn(-c4c(C)cc(Oc5ccccc5F)cc4F)c3N)[nH]c2cc1NS(C)(=O)=O` [Example 4-1-006, N-[2-[5-amino-1-[2-fluoro-4-(2-fluorophenoxy)-6-methylphenyl]pyrazole-4-carbonyl]-5-methoxy-1H-indol-6-yl]methanesulfonamide], the IC50 worked out at 11 nM on human Lck enzyme (setting [1]), 1.8 nM on human Yes1 enzyme (setting [1]) and 74 nM at human Src enzyme (setting [1]).

As to `Cc1cc(Oc2ccccc2F)ccc1-n1ncc(C(=O)c2cc3cc(Cl)c(NS(C)(=O)=O)cc3[nH]2)c1N` [Example 4-2-077, N-[2-[5-amino-1-[4-(2-fluorophenoxy)-2-methylphenyl]pyrazole-4-carbonyl]-5-chloro-1H-indol-6-yl]methanesulfonamide], the IC50 on human Lck enzyme (setting [1]) turned out to be 4.3 nM; on human Yes1 enzyme (setting [1]), 0.64 nM; at human Src enzyme (setting [1]) it was 25 nM.

On to `Cc1ccccc1Oc1cc(C)c(-n2ncc(C(=O)c3cc4cc(F)c(NS(=O)(=O)C5CC5)cc4[nH]3)c2N)cn1` [Example 4-2-047, N-[2-[5-amino-1-[4-methyl-6-(2-methylphenoxy)pyridin-3-yl]pyrazole-4-carbonyl]-5-fluoro-1H-indol-6-yl]cyclopropanesulfonamide], for which the IC50 on human Lck enzyme (setting [1]) amounted to 64 nM; on human Yes1 enzyme (setting [1]), 4.5 nM; on human Src enzyme (setting [1]), 79 nM.

On to `Cc1cc(Oc2ccccc2F)cc(F)c1-n1ncc(C(=O)c2cc3cc(NS(C)(=O)=O)c(Cl)cc3[nH]2)c1N` [Example 4-2-093, N-[2-[5-amino-1-[2-fluoro-4-(2-fluorophenoxy)-6-methylphenyl]pyrazole-4-carbonyl]-6-chloro-1H-indol-5-yl]methanesulfonamide], for which the IC50 on human Lck enzyme (setting [1]) is 5.7 nM; at human Yes1 enzyme (setting [1]), 0.89 nM; at human Src enzyme (setting [1]), 19 nM.

In the case of `Cc1cc(Oc2ccccc2F)ncc1-n1ncc(C(=O)c2cc3cc(OCC(F)F)c(NC4COC4)cc3[nH]2)c1N` [Example 4-23-020, [5-amino-1-[6-(2-fluorophenoxy)-4-methylpyridin-3-yl]pyrazol-4-yl]-[5-(2,2-difluoroethoxy)-6-(oxetan-3-ylamino)-1H-indol-2-yl]methanone], the IC50 was 3.8 nM on human Lck enzyme (setting [1]), 1.4 nM on human Yes1 enzyme (setting [1]) and 30 nM on human Src enzyme (setting [1]).

`Cc1cc(Oc2c(F)cccc2F)ncc1-n1ncc(C(=O)c2cc3cc(F)c(NS(=O)(=O)c4c(F)cc(F)cc4F)cc3[nH]2)c1N` [Example 5-1-567, N-[2-[5-amino-1-[6-(2,6-difluorophenoxy)-4-methylpyridin-3-yl]pyrazole-4-carbonyl]-5-fluoro-1H-indol-6-yl]-2,4,6-trifluorobenzenesulfonamide]: the IC50 was found to be 610 nM on human Lck enzyme (setting [1]), 19 nM on human Yes1 enzyme (setting [1]) and 1200 nM on human Src enzyme (setting [1]).

For `Cc1cc2cc(C(=O)c3cnn(-c4ccc(Oc5ccccc5F)cc4C)c3N)[nH]c2cc1N1C(=O)NC2(CCC2)C1=O` [Example 5-1-371, 7-[2-[5-amino-1-[4-(2-fluorophenoxy)-2-methylphenyl]pyrazole-4-carbonyl]-5-methyl-1H-indol-6-yl]-5,7-diazaspiro[3.4]octane-6,8-dione], the IC50 at human Lck enzyme worked out at 9.8 nM; on human Yes1 enzyme, 2 nM; at human Src enzyme, 30 nM.

On to `Cc1cc(Oc2ccccc2F)cc(F)c1-n1ncc(C(=O)c2cc3cc(OCC(F)F)c(N4CCCC4=O)cc3[nH]2)c1N` [Example 4-21-004, 1-[2-[5-amino-1-[2-fluoro-4-(2-fluorophenoxy)-6-methylphenyl]pyrazole-4-carbonyl]-5-(2,2-difluoroethoxy)-1H-indol-6-yl]pyrrolidin-2-one], for which the IC50 on human Lck enzyme (setting [1]) was determined as 3 nM; on human Yes1 enzyme (setting [1]) it was 1 nM; at human Src enzyme (setting [1]), 9.2 nM.

On to `Cc1cc(Oc2ccccc2F)ncc1-n1ncc(C(=O)c2cc3cc(OC(F)F)c(NC4CN(S(C)(=O)=O)C4)cc3[nH]2)c1N` [Example 4-23-025, [5-amino-1-[6-(2-fluorophenoxy)-4-methylpyridin-3-yl]pyrazol-4-yl]-[5-(difluoromethoxy)-6-[(1-methylsulfonylazetidin-3-yl)amino]-1H-indol-2-yl]methanone], for which the results for the IC50 at human Lck enzyme (setting [1]), at human Yes1 enzyme (setting [1]) and on human Src enzyme (setting [1]) were 5.6 nM, 1.8 nM and 30 nM, respectively.

`Cc1cc(Oc2c(F)cccc2F)ncc1-n1ncc(C(=O)c2cc3cc(OC(F)F)c(-n4c(C)cc(=O)[nH]c4=O)cc3[nH]2)c1N` [Example 5-1-072, 1-[2-[5-amino-1-[6-(2,6-difluorophenoxy)-4-methylpyridin-3-yl]pyrazole-4-carbonyl]-5-(difluoromethoxy)-1H-indol-6-yl]-6-methylpyrimidine-2,4-dione]: the figures for the IC50 on human Lck enzyme, at human Yes1 enzyme and at human Src enzyme were 8.2 nM, 7.7 nM and 36 nM, respectively.
